Test results reported in US20210085739A1, “ANTIPLATELET ACTIVITY OF THE ACANTHUS MOLLIS SEEDS' TOTAL EXTRACT AND ITS CONSTITUENTS” (priority 2017, published 2021).

Assays:
[1] = tested on: platelet aggregation induced by TRAP-6; assay: Light Transmittance Aggregometry in human PRP, agonist TRAP-6 (10 μM); format: cell-based; settings: each agent 1 mg/mL, combinations at mass ratios 1:1 or 1:1:1
Protocol: (§1) The effect of methanol extract on platelet aggregation in vitro was extensively studied in human Platelet Rich Plasma (PRP) from healthy volunteers, using Light Transmittance Aggregometry (LTA), as we previously described (Mitsios J V, et al. Eur J Biochem. 2004; 271:855-862). PRP was activated by arachidonic acid (AA; 0.5 mM), Thrombin Receptor Activating Peptide-6 (TRAP-6; 10 μM) and ADP (10 μM), as agonists. Samples were prepared by evaporating the methanol under nitrogen and then by dissolving the residue in DMSO. The maximal aggregation, achieved within 4 min after the addition of each agonist, was determined and expressed as a percentage of 100% light transmission calibrated for each specimen (% maximal aggregation). The inhibitory efficacy of the seeds extract expressed as IC50 value (half maximal inhibitory concentration). All values derived from at least three independent experiments performed for each platelet agonist, using 3 different methanol extract preparations (prepared as described above) and are expressed as the mean±standard deviation (S.D.). The final concentration of DMSO in each assay was 0.01% by volume.
(§2) Each fraction was dissolved in DMSO and used at a final concentration of 1 mg/mL. Standards of Verbascoside and Isoverbascoside were also dissolved in DMSO and used at a final concentration of 1 mg/mL. […] This concentration was not much lower to that of the total extract 0.25 mg/mL (as it would expected, since we used a purified fraction from the total extract that expresses the inhibitory activity towards AA-induced platelet aggregation). Therefore, we used a combination of fraction 1 with fraction 2 or 3 (at mass ratios of 1:1) or a combination of the 3 fractions (at mass ratios of 1:1:1).
Next we evaluated the biological effect of the three fractions towards platelet aggregation induced by TRAP-6.

[2] = tested on: platelet aggregation induced by AA; assay: Light Transmittance Aggregometry in human PRP, agonist arachidonic acid (AA; 0.5 mM); format: cell-based; settings: for inhibition of AA-induced platelet aggregation (FIG. 5A, 6A): each agent 1 mg/mL, combinations at mass ratios 1:1 or 1:1:1
Protocol: as §1, §2

Row | SMILES | inhibition of TRAP-6-induced platelet aggregation (FIG. 5B, 6B) [1] | inhibition of AA-induced platelet aggregation (FIG. 5A, 6A) [2] | threshold concentration (the lower concentration that induces the maximum inhibitory effect), AA-induced platelet aggregation [2]
1 | C[C@@H]1O[C@@H](O[C@@H]2[C@@H](O)[C@H](OCCc3ccc(O)c(O)c3)O[C@H](COC(=O)/C=C/c3ccc(O)c(O)c3)[C@H]2O)[C@H](O)[C@H](O)[C@H]1O [Isoverbascoside] | inhibited platelet aggregation | do not inhibit platelet aggregation | 
2 | C[C@@H]1O[C@@H](O[C@@H]2[C@@H](O)[C@H](OCCc3ccc(O)c(O)c3)O[C@H](CO)[C@H]2OC(=O)/C=C/c2ccc(O)c(O)c2)[C@H](O)[C@H](O)[C@H]1O [Verbascoside] | only Isoverbascoside inhibited platelet aggregation | do not inhibit platelet aggregation | 
3 | O=C1C(O[C@@H]2O[C@H](CO)[C@@H](O)[C@H](O)[C@H]2O)Oc2ccccc2N1O (stereo partly drawn) [fraction 1, 2-O-β-D-glucopyranosyl-4-hydroxy-1,4-benzoxazin-3-one] | no inhibitory activity | inhibited platelet aggregation | 0.2 mg/mL
